In test [1] the test system is Rattus norvegicus. The test can be described thus: Saluretic property after 50 mg/kg oral administration in rats. In kind it is functional.
Test [2] concerns Canis familiaris. In words: Saluretic property in average of three anesthetized dogs after 5 mg/kg intravenous administration. In kind it is functional, Canis lupus familiaris.
Test [3] has as its system Canis familiaris. The test can be described thus: Saluretic property in average of one used conscious dog after 5 mg/kg intravenous administration. In kind it is functional, Canis lupus familiaris.
Test [4] relates to Canis familiaris. The test can be described thus: Saluretic property in average of two anesthetized dogs after 1 mg/kg intravenous administration. In kind it is functional, Canis lupus familiaris.
Test [5] has as its system Canis familiaris. In words: Saluretic property in average of two anesthetized dogs after 5 mg/kg intravenous administration. In kind it is functional, Canis lupus familiaris.
Test [6] relates to Canis familiaris. The test can be described thus: Saluretic property in average of two conscious dogs after 5 mg/kg intravenous administration. In kind it is functional, Canis lupus familiaris.
Test [7] has as its system Canis familiaris. The test can be described thus: Saluretic property in average of two anesthetized dogs after 5 mg/kg iv administration. In kind it is functional, Canis lupus familiaris.
Test [8] concerns Rattus norvegicus. The test can be described thus: Saluretic property after 80 mg/kg oral administration in rats. In kind it is functional.
The subject of test [9] is Canis familiaris. In words: Saluretic property in average of single anesthetized dogs after 5 mg/kg intravenous administration. In kind it is functional, Canis lupus familiaris.

SMILES strings stand for the structures.

The results in this text go back to ChEMBL document CHEMBL1122215, “2-(Aminomethyl)phenols, a new class of saluretic agents. 5. Fused-ring analogues” (1983).

As to `NS(=O)(=O)c1cc2c(cc1Cl)NCNS2(=O)=O` [HYDROCHLOROTHIAZIDE], the results for the Score in the test with Rattus norvegicus [1] and in the test on Canis familiaris [2] were 2 and 1, respectively.

With `Cl.Cl.NCc1c(O)ccc2ncccc12`, the Score in the test on Rattus norvegicus [1] came out at 0; in the test on Canis familiaris [3] it was 1.

Turning to `NS(=O)(=O)c1cc(C(=O)O)c(NCc2ccco2)cc1Cl` [FUROSEMIDE], the values for the Score in the test with Canis familiaris [4] and in the test with Rattus norvegicus [1] were 6 and 3, respectively.

Take `CC1Nc2ccc(O)c(CN)c2S1.Cl.Cl` (centres undefined): the Score in the test on Rattus norvegicus [1] and in the test on Canis familiaris [5] was 0 each time.

The compound `Cl.Cl.Cl.NCc1cc(Cl)c2cccnc2c1O` registered a Score in the test on Canis familiaris [6] of 1.

`Cc1cc(C)c2c(c1O)C(N)CC2.Cl` (centres undefined): the Score in the test on Rattus norvegicus [1] and with Canis familiaris [5] was 0 in each case.

Take `Cl.NCc1c(O)ccc2ccccc12`: the Score in the test on Canis familiaris [5] is on record as 1.

Regarding `Cc1cc(=O)oc2ccc(O)c(CN)c12.Cl`, the Score in the test with Rattus norvegicus [1] and in the test with Canis familiaris [7] was 0 each time.

In the case of `CCC1Cc2c(Cl)c(Cl)c(O)c(CN)c2C1.Cl` (centres undefined), the Score in the test with Rattus norvegicus [1] and with Canis familiaris [5] was 0 in each case.

With `Cc1c(O)c(CN)c(C)c2c1CCCC2.Cl`, the Score with Rattus norvegicus [1] turned out to be 5; with Canis familiaris [6], 4.

For `Cl.Cl.NCc1c(O)ccc2cccnc12`, the Score with Canis familiaris [5] and in the test with Rattus norvegicus [8] was 0 throughout.

As to `Cl.NCc1c(O)ccc2nccnc12`, the Score came to 0 with Rattus norvegicus [1] and 1 with Canis familiaris [2].

For `Cl.NC1CCc2c(Cl)ccc(O)c21` (centres undefined), the Score in the test with Canis familiaris [5] is reported as 1.

For `Cl.Cl.NCc1ccc2cnccc2c1O`, the results for the Score in the test with Canis familiaris [9] and with Rattus norvegicus [1] were 1 and 0, respectively.

Turning to `NCc1ccccc1O` [2-(AMINOMETHYL)PHENOL], the Score with Rattus norvegicus [1] and in the test with Canis familiaris [7] was 0 each time.

Turning to `Cl.NCc1cc(Cl)c2ccccc2c1O`, the Score worked out at 2 with Rattus norvegicus [1] and 6 with Canis familiaris [5].
